This passage reports DC50 results from patent US20260232673A1, “ISOINDOLINONE GLUTARIMIDE AND PHENYL GLUTARIMIDE ANALOGS AS DEGRADERS OF RET KINASE” (Bristol-Myers Squibb Company, priority 2023, published 2026).

The structures appear in SMILES notation.

The target in this test is T1, CCDC6-RET fusion (Homo sapiens, UniProt P07949+Q16204+Q96SW2).
T1 construct: CCDC6 (N-terminal fusion partner from the natural gene rearrangement, Q16204); endogenous in cells; host or cells: TPC-1 (parental) papillary thyroid carcinoma cells
T1 sequence (Q16204+P07949 fused): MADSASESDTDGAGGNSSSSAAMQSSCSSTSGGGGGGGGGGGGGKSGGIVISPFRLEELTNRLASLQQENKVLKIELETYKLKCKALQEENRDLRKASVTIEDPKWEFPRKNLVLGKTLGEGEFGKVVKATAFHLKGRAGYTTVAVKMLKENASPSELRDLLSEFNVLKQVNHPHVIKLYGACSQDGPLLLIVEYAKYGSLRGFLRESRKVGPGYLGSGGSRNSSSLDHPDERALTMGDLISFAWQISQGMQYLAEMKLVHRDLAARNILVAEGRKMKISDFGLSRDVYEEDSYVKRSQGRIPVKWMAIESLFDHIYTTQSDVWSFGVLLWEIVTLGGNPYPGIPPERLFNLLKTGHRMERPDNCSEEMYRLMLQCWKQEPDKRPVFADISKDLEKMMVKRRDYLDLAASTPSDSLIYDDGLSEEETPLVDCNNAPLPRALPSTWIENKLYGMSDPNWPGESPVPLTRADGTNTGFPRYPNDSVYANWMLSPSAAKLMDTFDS
T1 sequence (Q96SW2 whole entry, the tested form may be a part): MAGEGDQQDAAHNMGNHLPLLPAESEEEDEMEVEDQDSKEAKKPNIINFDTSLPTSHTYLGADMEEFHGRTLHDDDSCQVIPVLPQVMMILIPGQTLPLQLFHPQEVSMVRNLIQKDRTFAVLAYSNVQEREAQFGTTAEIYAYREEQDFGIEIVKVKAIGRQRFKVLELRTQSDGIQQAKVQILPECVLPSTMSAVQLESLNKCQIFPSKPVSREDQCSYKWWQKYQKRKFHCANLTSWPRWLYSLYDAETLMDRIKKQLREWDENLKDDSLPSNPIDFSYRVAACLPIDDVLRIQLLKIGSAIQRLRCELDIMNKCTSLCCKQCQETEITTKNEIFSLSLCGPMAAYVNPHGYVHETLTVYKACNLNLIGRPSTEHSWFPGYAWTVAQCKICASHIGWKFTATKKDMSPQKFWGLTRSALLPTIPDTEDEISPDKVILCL
In words: Cellular RET degradation assay (AlphaLISA Surefire Ultra, TPC-1 cells). The following applies: half-maximal degradation concentration (DC50); parental TPC-1/CCDC6-RET cell line; 24 hrs compound treatment; AlphaLISA luminescence; read-out: Cell Density TPC-1/CCDC6-RET IC50. The class given is cell-based. How it is done:
Cellular RET degradation compound potency was determined using the bead-based luminescent amplification assay—AlphaLISA Surefire Ultra Detection Kit (Perkin-Elmer). The CCDC6-RET fusion expressing papillary thyroid carcinoma (TPC-1) cell line was selected for screening of potential degraders: Parental (TPC-1/CCDC6-RET). Cells were plated in 384 well culture plates (Greiner Bio-One) at 10,000 cells/well in 50 ul/well DMEM (Fisher Scientific) with 2% FBS serum (Gibco). […] Low normalization wells were media only and high normalization wells were cells treated with DMSO only. Treated cell plates were placed in an incubator at 37C and 5% CO2 for 24 hrs. At 24 hrs, cell media was removed by a FELIX automated liquid hander (Analytik Jena) and 25 ul of cell lysis buffer (provided in AlphaLisa kit) was added to each well. 5 ul cell lysate were transferred into a 384-well microplate (Perkin Elmer) before addition of 2.5 ul AlphaLISA Acceptor Bead mix. The plates were sealed and kept at room temperature for 1 hr before addition of donor bead mixture. Donor bead addition was performed in the dark and incubated for >1 hr before AlphaLISA luminescence was measured on an Envision plate reader with an Alphascreen aperture at RT (excitation 680 nm, emission 615 nm). RET protein abundance (and therefore degradation) directly corresponds to luminescence intensity.
Intensities were normalized relative to the average values from 16 wells containing media alone (blank-low) and 16 wells containing cells+DMSO (high). % Degradation for each well was determined using the standard equation, where
DC50 (IC50) values for each compound tested are calculated by analyzing plots of % degradation versus compound concentration, and fitting to the standard 4-parameter logistic curve where,
Top and bottom are the % degradation at infinitely large and infinitely small compound concentrations, respectively, while Halfmax is the compound concentration yielding % degradation corresponding to ½ Top-Bottom, and N is the Hill coefficient. DC50 values are calculated according to the relationship,
Compound replicates were performed in independent assays. Maximum degradation (YMax) was defined as the maximal % degradation value from the 4-parameter logistic equation, as previously described.
For orientation: In Alpha technology, singlet oxygen from a donor bead excites a nearby acceptor bead.
As for `Nc1ncnc2c1c(-c1noc(C3CC3)c1-c1ccccn1)nn2[C@H]1C[C@H](C(=O)NCCCCN2CCN(c3ccc4c(c3)CN(C3CCC(=O)NC3=O)C4=O)CC2)C1` (stereo partly drawn) [Example A2, (1r,3r)-3-{4-amino-3-[5-cyclopropyl-4-(pyridin-2-yl)-1,2-oxazol-3-yl]-1H-pyrazolo[3,4-d]pyrimidin-1-yl}-N-(4-{4-[2-(2,6-dioxopiperidin-3-yl)-1-oxo-2,3-dihydro-1H-isoindol-5-yl]piperazin-1-yl}butyl)cyclobutane-1-carboxamide], the DC50 came out at 3.17 nM. Under `Nc1ncnc2c1c(-c1noc(C3CC3)c1-c1ccccn1)nn2[C@H]1C[C@H](C(=O)NCCN2CCC(c3ccc4c(c3)CN(C3CCC(=O)NC3=O)C4=O)CC2)C1` (stereo partly drawn) [Example A3, (1r,3r)-3-{4-amino-3-[5-cyclopropyl-4-(pyridin-2-yl)-1,2-oxazol-3-yl]-1H-pyrazolo[3,4-d]pyrimidin-1-yl}-N-(2-{4-[2-(2,6-dioxopiperidin-3-yl)-1-oxo-2,3-dihydro-1H-isoindol-5-yl]piperidin-1-yl}ethyl)cyclobutane-1-carboxamide] stands 10.2 nM. In the case of `Nc1ncnc2c1c(-c1noc(C3CC3)c1-c1ccccn1)nn2[C@H]1C[C@H](C(=O)NCCCCN2CCC(c3ccc4c(c3)CN(C3CCC(=O)NC3=O)C4=O)CC2)C1` (stereo partly drawn) [Example A4, (1r,3r)-3-{4-amino-3-[5-cyclopropyl-4-(pyridin-2-yl)-1,2-oxazol-3-yl]-1H-pyrazolo[3,4-d]pyrimidin-1-yl}-N-(4-{4-[2-(2,6-dioxopiperidin-3-yl)-1-oxo-2,3-dihydro-1H-isoindol-5-yl]piperidin-1-yl}butyl) cyclobutane-1-carboxamide], the DC50 worked out at 6.51 nM. Regarding `Nc1ncnc2c1c(-c1noc(C3CC3)c1-c1ccccn1)nn2[C@H]1C[C@H](C(=O)NCCCCCCN2CCC(c3ccc4c(c3)CN(C3CCC(=O)NC3=O)C4=O)CC2)C1` (stereo partly drawn) [Example A5, (1r,3r)-3-{4-amino-3-[5-cyclopropyl-4-(pyridin-2-yl)-1,2-oxazol-3-yl]-1H-pyrazolo[3,4-d]pyrimidin-1-yl}-N-(6-{4-[2-(2,6-dioxopiperidin-3-yl)-1-oxo-2,3-dihydro-1H-isoindol-5-yl]piperidin-1-yl}hexyl)cyclobutane-1-carboxamide], the DC50 stood at 9.27 nM. `Nc1ncnc2c1c(-c1noc(C3CC3)c1-c1ccccn1)nn2[C@H]1C[C@H](C(=O)NCCCCN2CCN(c3ccc4c(c3)C(=O)N(C3CCC(=O)NC3=O)C4)CC2)C1` (stereo partly drawn) [Example A6, (1r,3r)-3-{4-amino-3-[5-cyclopropyl-4-(pyridin-2-yl)-1,2-oxazol-3-yl]-1H-pyrazolo[3,4-d]pyrimidin-1-yl}-N-(4-{4-[2-(2,6-dioxopiperidin-3-yl)-3-oxo-2,3-dihydro-1H-isoindol-5-yl]piperazin-1-yl}butyl) cyclobutane-1-carboxamide]: the DC50 came to 6.42 nM. In the case of `Nc1ncnc2c1c(-c1noc(C3CC3)c1-c1ccccn1)nn2[C@H]1C[C@H](C(=O)NCCCCCCN2CCN(c3ccc4c(c3)C(=O)N(C3CCC(=O)NC3=O)C4)CC2)C1` (stereo partly drawn) [Example A7, (1r,3r)-3-{4-amino-3-[5-cyclopropyl-4-(pyridin-2-yl)-1,2-oxazol-3-yl]-1H-pyrazolo[3,4-d]pyrimidin-1-yl}-N-(6-{4-[2-(2,6-dioxopiperidin-3-yl)-3-oxo-2,3-dihydro-1H-isoindol-5-yl]piperazin-1-yl}hexyl) cyclobutane-1-carboxamide], the DC50 came out at 5.32 nM.

As for `Nc1ncnc2c1c(-c1noc(C3CC3)c1-c1ccccn1)nn2[C@H]1C[C@H](C(=O)NCCCCN2CCC(c3ccc4c(c3)C(=O)N(C3CCC(=O)NC3=O)C4)CC2)C1` (stereo partly drawn) [Example A8, (1r,3r)-3-{4-amino-3-[5-cyclopropyl-4-(pyridin-2-yl)-1,2-oxazol-3-yl]-1H-pyrazolo[3,4-d]pyrimidin-1-yl}-N-(4-{4-[2-(2,6-dioxopiperidin-3-yl)-3-oxo-2,3-dihydro-1H-isoindol-5-yl]piperidin-1-yl}butyl)cyclobutane-1-carboxamide], the DC50 was found to be 17.4 nM.

In the case of `Nc1ncnc2c1c(-c1noc(C3CC3)c1-c1ccccn1)nn2[C@H]1C[C@H](C(=O)NCCCCCCN2CCC(c3ccc4c(c3)C(=O)N(C3CCC(=O)NC3=O)C4)CC2)C1` (stereo partly drawn) [Example A9, (1r,3r)-3-{4-amino-3-[5-cyclopropyl-4-(pyridin-2-yl)-1,2-oxazol-3-yl]-1H-pyrazolo[3,4-d]pyrimidin-1-yl}-N-(6-{4-[2-(2,6-dioxopiperidin-3-yl)-3-oxo-2,3-dihydro-1H-isoindol-5-yl]piperidin-1-yl}hexyl)cyclobutane-1-carboxamide], the DC50 amounted to 22 nM. For `Nc1ncnc2c1c(-c1noc(C3CC3)c1-c1ccccn1)nn2[C@H]1C[C@H](C(=O)NCCCCNc2ccc(C3CCC(=O)NC3=O)cc2)C1` (stereo partly drawn) [Example A11, (1r,3r)-3-{4-amino-3-[5-cyclopropyl-4-(pyridin-2-yl)-1,2-oxazol-3-yl]-1H-pyrazolo[3,4-d]pyrimidin-1-yl}-N-(4-{[4-(2,6-dioxopiperidin-3-yl)phenyl]amino}butyl) cyclobutane-1-carboxamide] the value was 57.6 nM; for `CC(C)n1nc(-c2noc(C3CC3)c2-c2cn(C3CCN(C(=O)CCCCCCN4CCN(c5ccc6c(c5)CN(C5CCC(=O)NC5=O)C6=O)CC4)CC3)cn2)c2c(N)ncnc21` (stereo not drawn) [Example A12, 3-[5-(4-{7-[4-(4-{3-[4-amino-1-(propan-2-yl)-1H-pyrazolo[3,4-d]pyrimidin-3-yl]-5-cyclopropyl-1,2-oxazol-4-yl}-1H-imidazol-1-yl)piperidin-1-yl]-7-oxoheptyl}piperazin-1-yl)-1-oxo-2,3-dihydro-1H-isoindol-2-yl]piperidine-2,6-dione], 1.77 nM; for `CC(C)n1nc(-c2noc(C3CC3)c2-c2cn(C3CCN(C(=O)CCCCCCN4CCC(c5ccc6c(c5)CN(C5CCC(=O)NC5=O)C6=O)CC4)CC3)cn2)c2c(N)ncnc21` (stereo not drawn) [Example A14, 3-[5-(1-{7-[4-(4-{3-[4-amino-1-(propan-2-yl)-1H-pyrazolo[3,4-d]pyrimidin-3-yl]-5-cyclopropyl-1,2-oxazol-4-yl}-1H-imidazol-1-yl)piperidin-1-yl]-7-oxoheptyl}piperidin-4-yl)-1-oxo-2,3-dihydro-1H-isoindol-2-yl]piperidine-2,6-dionc], 2.02 nM. For `CC(C)n1nc(-c2noc(C3CC3)c2-c2cn(C3CCN(C(=O)CCCCN4CCC(c5ccc6c(c5)C(=O)N(C5CCC(=O)NC5=O)C6)CC4)CC3)cn2)c2c(N)ncnc21` (stereo not drawn) [Example A17, 3-[6-(1-{5-[4-(4-{3-[4-amino-1-(propan-2-yl)-1H-pyrazolo[3,4-d]pyrimidin-3-yl]-5-cyclopropyl-1,2-oxazol-4-yl}-1H-imidazol-1-yl)piperidin-1-yl]-5-oxopentyl}piperidin-4-yl)-1-oxo-2,3-dihydro-1H-isoindol-2-yl]piperidine-2,6-dione] the value was 43.2 nM. For `CC(C)n1nc(-c2noc(C3CC3)c2C2CCN(C(=O)CCCCCCN3CCN(c4ccc5c(c4)C(=O)N(C4CCC(=O)NC4=O)C5)CC3)CC2)c2c(N)ncnc21` (stereo not drawn) [Example A19, 3-(6-{4-[7-(4-{3-[4-amino-1-(propan-2-yl)-1H-pyrazolo[3,4-d]pyrimidin-3-yl]-5-cyclopropyl-1,2-oxazol-4-yl}piperidin-1-yl)-7-oxoheptyl]piperazin-1-yl}-1-oxo-2,3-dihydro-1H-isoindol-2-yl)piperidine-2,6-dione] the value was 27.8 nM. On to `COC1(C(=O)N[C@@H](CCCNC(=O)CCCCCCCCNc2cccc(C3CCC(=O)NC3=O)c2)c2ccc(-n3cc(F)cn3)nc2)CCN(c2nc(C)cc(Nc3cc(C)[nH]n3)n2)CC1` (stereo partly drawn) [Example A29], for which the DC50 was found to be 4.88 nM.

Regarding `COC1(C(=O)N[C@@H](CCCNC(=O)CCCCCCN2CCN(c3ccc4c(c3)CN(C3CCC(=O)NC3=O)C4=O)CC2)c2ccc(-n3cc(F)cn3)nc2)CCN(c2nc(C)cc(Nc3cc(C)[nH]n3)n2)CC1` (stereo partly drawn) [Example A34, 7-{4-[2-(2,6-dioxopiperidin-3-yl)-1-oxo-2,3-dihydro-1H-isoindol-5-yl]piperazin-1-yl}-N-[(4S)-4-[6-(4-fluoro-1H-pyrazol-1-yl)pyridin-3-yl]-4-[(4-methoxy-1-{4-methyl-6-[(5-methyl-1H-pyrazol-3-yl)amino]pyrimidin-2-yl}piperidin-4-yl)formamido]butyl] heptanamide], the DC50 came to 13.2 nM.
